Test results taken from patent US20160193299A1, “MODIFIED NUCLEOSIDE, NUCLEOTIDE, AND NUCLEIC ACID COMPOSITIONS” (Moderna Therapeutics, Inc., priority 2011, published 2016).

What was measured:
TNF-alpha = assay: Example 46A percent-modified G-CSF mRNA transfected in PBMC, TNF-alpha ELISA; format: cell-based, human
Protocol: The supernatant was harvested and run by ELISA 22 hours after transfection to determine the protein expression.

mice = assay: In vivo cytokine expression study (serum IFN-alpha); details: mouse serum; I.M. 200 ug mRNA; after 8 hours
Protocol: After 8 hours serum was collected from the mice and analyzed for interferon-alpha (IFN-alpha) expression.

IFN-alpha = assay: Example 45 cytokine study in PBMC, IFN-alpha ELISA; format: cell-based, human; details: for IFN-alpha signal - 2 donor average: PBMC
Protocol: (§1) The plates were then incubated at 37 C.
(§2) Each condition was done in duplicate.
(§3) Shown in Tables 69 and 70 are the average from 2 separate PBMC donors of the G-CSF and IFN-alpha production over time as measured by specific ELISA.

Female BALB/C mice = assay: In vivo detection of innate immune response: human G-CSF and mouse IFN-alpha in serum after I.M. injection; details: I.M., 8 hours after dosing
Protocol: Blood is collected at 8 hours after dosing and using ELISA the protein levels of G-CSF and interferon-alpha (IFN-alpha) is determined by ELISA and are shown in Table 81.

[1] = test system: female Sprague Dawley rats; assay: In vivo delivery of modified RNA: G-CSF protein in rat serum (I.M.); details: I.M. 400 ug in 100 ul, 5% sucrose, 8 hours after injection
Protocol: Protein production of modified mRNA was evaluated by delivering modified G-CSF mRNA or modified Factor IX mRNA to female Sprague Dawley rats (n=6). […] Blood was collected 8 hours after injection and the G-CSF protein level in serum was measured by ELISA.

Factor IX protein = assay: Factor IX mRNA transfected in serum-free media (2D HPLC / MALDI peptide detection); format: cell-based, Human; details: 8 peptides detected, 7 unique to Factor IX
Description: The cell culture supernatant was collected and subjected to trypsin digestion before undergoing 2-dimensional HPLC separation of the peptides. Matrix-assisted laser desorption/ionization was used to detect the peptides. 8 peptides were detected and 7 of the detected peptides are unique to Factor IX.

HEK293A = assay: Example 44 signal sequence exchange study, secreted G-CSF ELISA; format: cell-based, human; details: 293A, 250 ng modified mRNA, supernatant after 24 hrs
Description: (§4) These variants included the G-CSF constructs encoding either the wild-type N terminal secretory signal peptide sequence ([…]; SEQ ID NO: 21), no secretory signal peptide sequence, or secretory signal peptide sequences taken from other mRNAs. These included sequences where the wild type GCSF signal peptide sequence was replaced with the signal peptide sequence of either: human α-1-anti trypsin (AAT) ([…]; SEQ ID NO: 22), human Factor IX (FIX) ([…]; SEQ ID NO: 23), human Prolactin (Prolac) ([…]; SEQ ID NO: 24), or human Albumin (Alb) ([…]; SEQ ID NO: 25).
(§5) 250 ng of modified mRNA encoding each G-CSF variant was transfected into HEK293A (293A in the table), mouse myoblast (MM in the table) (C2C12, CRL-1772, ATCC) and rat myoblast (RM in the table) (L6 line, CRL-1458, ATCC) cell lines in a 24 well plate using 1 ul of Lipofectamine 2000 (Life Technologies), each well containing 300,000 cells. […] The data shown in Table 68 reveal that cells transfected with G-CSF mmRNA encoding the Albumin signal peptide secrete at least 12 fold more G-CSF protein than its wild type counterpart.

Factor IX [2] = assay: Example 39 in vivo study of Factor IX mmRNA IM, serum Factor IX; details: mice IM, 2×100 ug/mouse, 13 hours
Protocol: Human Factor IX mmRNA (Gen1; fully modified 5-methycytosine and pseudouridine) formulated in formulation buffer was delivered to mice via intramuscular injection.
The mice were bled at 13 hours after the intramuscular injection to determine the concentration of human the polypeptide in serum in pg/mL.

Factor IX [3] = assay: Example 16 lipid nanoparticle in vivo study, serum Factor IX ELISA; design: species or system mice
Protocol: Mice were sacrificed at 8 hrs after dosing. […] Protein expression was determined by ELISA.
As used in Table 30, the symbol “˜” means about.

mouse myoblast (C2C12) = assay: Example 44 signal sequence exchange study, secreted G-CSF ELISA; format: cell-based; details: MM, 250 ng modified mRNA, supernatant after 24 hrs
Description: as §4, §5

rat myoblast (L6 line) = assay: as above; format: cell-based; details: RM, 250 ng modified mRNA, supernatant after 24 hrs
Description: as §4, §5

neutrophil count = assay: Example 40 multi-site IM and SC administration of G-CSF mRNA, neutrophil count; format: in vivo; details: mice, day 3
Protocol: Injection of four doses or 2×50 ug (two sites) daily for three days (24 hrs interval) was performed. The fourth dose was administered 6 hrs before blood collection and CBC analysis. […] The mice were bled at 72 hours after the first mRNA injection (6 hours after the last mRNA dose) to determine the effect of mRNA-encoded human G-CSF on the neutrophil count. The dosing regimen is shown in Table 63 as are the resulting neutrophil counts (thousands/uL). In Table 63, an asterisks (*) indicate statistical significance at p<0.05.

human G-CSF = assay: Example 32C human G-CSF modified RNA lipoplex vs saline comparison IM/SC, serum G-CSF ELISA; format: in vivo, C57/BL6 mice; details: mouse serum, I.M. or S.C., 13 hours
Protocol: A formulation containing 100 μg of either modified human G-CSF mRNA lipoplexed with 30% by volume of RNAIMAX™ with a 5-methylcytosine (5mc) and a pseudouridine (ψ) modification (G-CSF-Gen1-Lipoplex), modified human G-CSF mRNA with a 5mc and w modification in saline (G-CSF-Gen1-Saline), modified human G-CSF mRNA with a N1-5-methylcytosine (N1-5mc) and a w modification lipoplexed with 30% by volume of RNAIMAX™ (G-CSF-Gen2-Lipoplex), modified human G-CSF mRNA with a N1-5mc and ψ modification in saline (G-CSF-Gen2-Saline), modified luciferase with a 5mc and ψ modification lipoplexed with 30% by volume of RNAIMAX™ (Luc-Lipoplex), or modified luciferase mRNA with a a 5mc and ψ modification in saline (Luc-Saline) was delivered intramuscularly (I.M.) or subcutaneously (S.C.) and a control group for each method of administration was giving a dose of 80 uL of the formulation buffer (F. Buffer) to C57/BL6 mice. 13 hours post injection serum and tissue from the site of injection were collected from each mouse and analyzed by G-CSF ELISA to compare human G-CSF protein levels. The results of the human G-CSF protein in mouse serum from the intramuscular administration and the subcutaneous administration results are shown in Table 55.

human PBMC = assay: Example 45 cytokine study in PBMC, G-CSF production ELISA; format: cell-based; details: Lipofectamine 2000
Protocol: as §1, §2, §3
In the G-CSF ELISA, background signal from the Lipofectamine 2000 untreated condition was subtracted at each timepoint. […] Many other cytokines were not affected by either modification.

CCOCc1nc2c(N)nc3ccccc3c2n1CC(C)(C)O [Formulation R-848, reference compound]
TNF-alpha Expression (TNF-alpha): 256.6 pg/mL | IFN-alpha (mice): 40.971 pg/mL | IFN-alpha signal - 2 donor average (IFN-alpha; 2 Hr): 39.1 pg/mL | IFN-alpha signal - 2 donor average (IFN-alpha; 4 Hr): 151.3 pg/mL | IFN-alpha signal - 2 donor average (IFN-alpha; 8 Hr): 278.4 pg/mL | IFN-alpha signal - 2 donor average (IFN-alpha; 20 Hr): 362.2 pg/mL | IFN-alpha signal - 2 donor average (IFN-alpha; 44 Hr): 208.1 pg/mL | G-CSF protein (Female BALB/C mice; human G-CSF in mouse serum, 200 ug/mouse mRNA (R848 75 ug) in 5% sucrose): 3.4 pg/mL | IFN-alpha expression (Female BALB/C mice; mouse IFN-alpha in serum, 200 ug/mouse mRNA (R848 75 ug)): 40.97 pg/mL

Factor IX Gen 1: Factor IX mRNA SEQ ID NO: 10, Cap1, fully modified with 5-methylcytosine and pseudouridine
G-CSF protein [1]: 2.25 pg/mL | expression of Factor IX protein (Factor IX protein): able to express full-length Factor IX protein

Factor IX: human Factor IX mRNA SEQ ID NO: 10, polyA ~160 nt, Cap1, fully modified with 5-methylcytosine and pseudouridine
secreted G-CSF protein (HEK293A): 11675 pg/mL | Factor IX in serum (Factor IX [2]): 1600 pg/mL | Factor IX Serum Concentration 8-12 hours after administration (Factor IX [3]; IM, 2 × 100 ug): ~1.6 ng/mL | Factor IX Serum Concentration 8-12 hours after administration (Factor IX [3]; IV (LNP), 1 ug): ~40 ng/mL | Factor IX Serum Concentration 8-12 hours after administration (Factor IX [3]; IV (LNP), 10 ug): ~400 ng/mL | Factor IX Serum Concentration 8-12 hours after administration (Factor IX [3]; IV (LNP), 100 ug): ~3,000-10,000 ng/ml | Factor IX Protein Expression, Conc (Factor IX [3]; mice IV LNP, 10 ug, serum 8 hrs): 383.04 ng/mL | Factor IX Protein Expression, Conc (Factor IX [3]; mice IV LNP, 100 ug, serum 8 hrs, dilution 50x): 3247.75 ng/mL | Factor IX Protein Expression, Conc (Factor IX [3]; mice IV LNP, 100 ug, serum 8 hrs, dilution 250x): 11177.20 ng/mL | Factor IX protein expression (Factor IX [3]; mice IV LNP, 100 ug, serum 8 hrs, range given in text): 3000 to 11000 ng/mL | secreted G-CSF protein (mouse myoblast (C2C12)): 6175 pg/mL | secreted G-CSF protein (rat myoblast (L6 line)): 11675 pg/mL

B1: Gen2 G-CSF mRNA: human G-CSF mRNA SEQ ID NO: 6 fully modified with 5-methylcytosine and N1-methylpseudouridine (nucleic acid, listed as Homo sapiens)
chain: GGGAAAUAAGAGAGAAAAGAAGAGUAAGAAGAAAUAUAAGAGCCACCAUGGCCGGUCCCGCGACCCAAAGCCCCAUGAAACUUAUGGCCCUGCAGUUGCUGCUUUGGCACUCGGCCCUCUGGACAGUCCAAGAAGCGACUCCUCUCGGACCUGCCUCAUCGUUGCCGCAGUCAUUCCUUUUGAAGUGUCUGGAGCAGGUGCGAAAGAUUCAGGGCGAUGGAGCCGCACUCCAAGAGAAGCUCUGCGCGACAUACAAACUUUGCCAUCCCGAGGAGCUCGUACUGCUCGGGCACAGCUUGGGGAUUCCCUGGGCUCCUCUCUCGUCCUGUCCGUCGCAGGCUUUGCAGUUGGCAGGGUGCCUUUCCCAGCUCCACUCCGGUUUGUUCUUGUAUCAGGGACUGCUGCAAGCCCUUGAGGGAAUCUCGCCAGAAUUGGGCCCGACGCUGGACACGUUGCAGCUCGACGUGGCGGAUUUCGCAACAACCAUCUGGCAGCAGAUGGAGGAACUGGGGAUGGCACCCGCGCUGCAGCCCACGCAGGGGGCAAUGCCGGCCUUUGCGUCCGCGUUUCAGCGCAGGGCGGGUGGAGUCCUCGUAGCGAGCCACCUUCAAUCAUUUUUGGAAGUCUCGUACCGGGUGCUGAGACAUCUUGCGCAGCCGUGAAGCGCUGCCUUCUGCGGGGCUUGCCUUCUGGCCAUGCCCUUCUUCUCUCCCUUGCACCUGUACCUCUUGGUCUUUGAAUAAAGCCUGAGUAGGAAG
modifications: 5mC/N1-methylpseudouridine modified
increase in neutrophil count above control (neutrophil count; intramuscular): two fold increase | increase in neutrophil count above control (neutrophil count; subcutaneous): two fold increase | innate immune recognition, cytokine production (IFN-alpha and others) (IFN-alpha; human PBMC, Lipofectamine 2000): did not significantly increase cytokines | human G-CSF protein production relative to 5-methylcytosine/pseudouridine modified mRNA (human G-CSF): increased human G-CSF protein production | G-CSF production (human PBMC): highest level of G-CSF production
